“Also recorded” adds a separate entry of the source.
Assays:
liver ATP and pH = experiment: 31P NMR spectroscopy of liver ATP and intracellular pH during hemorrhagic shock; type: in vivo, rat; details: FIG. 23; vs cyclodextrin control; listed as E2
Procedure: Imaging and nuclear magnetic resonance studies were conducted to evaluate the effects of E2 on preservation of adenosine triphosphate (ATP) and pH levels in the liver.
The traumatic injury can involve a reduction in cellular ATP levels as compared to control ATP levels. By “control” is meant levels as measured before the traumatic injury, or levels that are considered in the “normal” range for the subject. Imaging and nuclear magnetic resonance studies have also been conducted to evaluate the effects of E2 on preservation of adenosine triphosphate (ATP) and pH levels in the liver.
Although E2 administration after trauma-hemorrhage (T-H) and fluid resuscitation produces salutary effects on organ functions, it was not known if E2 has any beneficial effects after major blood loss in the absence of fluid resuscitation. Male SD rats ˜250 g) underwent T-H (tissue trauma, BP 40 mmHg in 10 min and maintained at that BP by further blood withdrawal until maximum bleed out (MBO, 60% of total blood volume) occurred (45:t5 min)). E2 i.v. (1 mg/Kg, 0.4 ml/Kg volume, i.e., 120 μL/300 g body weight) or vehicle (cyclodextrin, CD) was then infused. No additional fluid was given for 3 hours. If rats survived, they received Ringer's lactate, 4× the MBO volume. […]

Bax and Bcl-2 = experiment: Spinal cord injury: Western blot analysis for Bax and Bcl-2; type: in vivo, mouse; details: 24 h after SCI; ICI 182,780: co-administered with 17β-estradiol
Procedure: Mice were anaesthetized using chloral hydrate (400 mg/kg body weight) (Genovese 2006). A longitudinal incision was made on the midline of the back, exposing the paravertebral muscles. These muscles were dissected away exposing T5-T8 vertebrae. The spinal cord was exposed via a four-level T6-T7 laminectomy and SCI was produced by extradural compression using an aneurysm clip with a closing force of 24 g. Following surgery, 1 ml of saline was administered subcutaneously in order to replace the blood volume lost during surgery. During the surgery and recovery from anesthesia, the mice were placed on a warm heating pad and covered with a warm towel. […] Food and water were provided to the mice ad libitum. During this time period, the animals' bladders were manually voided twice a day until the mice were able to regain normal bladder function. In all injured groups, the spinal cord was compressed for 1 min. Sham-injured animals were only subjected to laminectomy. […] In the experiments regarding the motor score, the animals from all the experimental groups were observed and treated daily for 9 days after SCI. At different time points (see FIG. 30), the mice (n=10 from each group for each of the 3 time points) were sacrificed in order to evaluate the various parameters as described below. […] After 1 hour, tissue lysates were obtained by centrifugation at 100,000×g for 15 min at 4° C. Protein concentrations were estimated by the Bio-Rad protein assay (Bio-Rad Laboratories, Segrate, Milan, Italy) using BSA as standard. […] The blot was performed by transferring proteins from a slab gel to nitrocellulose membrane at 240 mA for 40 min at room temperature. […] The AffiniPure Goat Anti-Rabbit IgG coupled to peroxidase secondary antibody (1:2000; Jackson Immuno Research, Laboratories, Inc., CA, USA) was incubated for 1 hour at room temperature. Subsequently, the blot was extensively washed with PBS, developed using SuperSignal West Pico chemiluminescence Substrate (PIERCE, Milan, Italy), according to the manufacturer's instructions, and exposed to Kodak X-Omat film (Eastman Kodak Co., Rochester, N.Y.). α-Tubulin protein (Sigma; 1:1000) Western blot was performed to ensure equal sample loading. The protein bands of Bax (23˜kDa), or Bcl-2 (26˜kDa) on x-ray film were scanned and densitometrically analyzed with a model GS-700 imaging densitometer (Bio-Rad Laboratories). To ascertain that blots were loaded with equal amounts of protein lysates, they were also incubated in the presence of the antibody against α-tubulin protein (1:10,000 Sigma-Aldrich Corp.). The densitometric data for Western are normalized for loading control values.

[1] = test system: ovariectomized female CBA/J mice; experiment: Trauma-hemorrhage in ovariectomized female mice: plasma E2 and uterine wet weight; type: in vivo, mouse; details: 24 h after E2 sc; sham operated or hemorrhaged, vs vehicle
[2] = test system: iNOS, nitrotyrosine, COX-2, Bax and Bcl-2; experiment: Spinal cord injury: immunohistochemical localization of nitrotyrosine, iNOS, COX-2, Bax and Bcl-2; type: in vivo, mouse; details: 24 h after SCI; ICI 182,780: co-administered with 17β-estradiol
Procedure: Mice were anaesthetized using chloral hydrate (400 mg/kg body weight) (Genovese 2006). A longitudinal incision was made on the midline of the back, exposing the paravertebral muscles. These muscles were dissected away exposing T5-T8 vertebrae. The spinal cord was exposed via a four-level T6-T7 laminectomy and SCI was produced by extradural compression using an aneurysm clip with a closing force of 24 g. Following surgery, 1 ml of saline was administered subcutaneously in order to replace the blood volume lost during surgery. During the surgery and recovery from anesthesia, the mice were placed on a warm heating pad and covered with a warm towel. […] Food and water were provided to the mice ad libitum. During this time period, the animals' bladders were manually voided twice a day until the mice were able to regain normal bladder function. In all injured groups, the spinal cord was compressed for 1 min. Sham-injured animals were only subjected to laminectomy. Mice were randomly allocated into the following groups: (i) saline+SCI group, mice received saline subcutaneously and were subjected to SCI (n=40); […] (v) saline+sham group, mice were subjected to the surgical procedures as above group except that the aneurysm clip was not applied (n=40); […] In the experiments regarding the motor score, the animals from all the experimental groups were observed and treated daily for 9 days after SCI. At different time points (see FIG. 30), the mice (n=10 from each group for each of the 3 time points) were sacrificed in order to evaluate the various parameters as described below. […] After deparaffinization, endogenous peroxidase was quenched with 0.3% (v/v) hydrogen peroxide in 60% (v/v) methanol for 30 min. […] Non-specific adsorption was minimized by incubating the section in 2% (v/v) normal goat serum in PBS for 20 min. Endogenous biotin or avidin binding sites were blocked by sequential incubation for 15 min with biotin and avidin (DBA), respectively. […] Sections were washed with PBS, and incubated with secondary antibody. Specific labeling was detected with a biotin-conjugated goat anti-rabbit IgG and avidin-biotin peroxidase complex (DBA) and counterstained with nuclear fast red. To verify the binding specificity for nitrotyrosine, iNOS, COX-2, Bax, and Bcl-2, some sections were also incubated with only the primary antibody (no secondary) or with only the secondary antibody (no primary). […] Immunocytochemistry photographs (n=5) were assessed by densitometry as previously described (Shea 1994) by using Imaging Densitometer (AxioVision, Zeiss, Milan, Italy) and a computer program.

| Compound | intracellular pH in liver (liver ATP and pH) | Bax levels (Western blot) (Bax and Bcl-2) | Bcl-2 expression (Western blot) (Bax and Bcl-2) | uterine wet weight [1] | immunohistochemical expression of Bax [2] | immunohistochemical expression of Bcl-2 [2] | immunostaining for COX-2 [2] | immunostaining for iNOS [2] | immunostaining for nitrotyrosine [2] |
| --- | --- | --- | --- | --- | --- | --- | --- | --- | --- |
| C[C@]12CC[C@@H]3c4ccc(O)cc4CC[C@H]3[C@@H]1CC[C@@H]2O [17β-estradiol] | maintenance of pH near neutral; also recorded: pH remains near neutral | prevented the SCI-induced Bax expression; also recorded: Bax band disappeared | significantly reduced the SCI-induced inhibition of Bcl-2 expression; also recorded: Bcl-2 band is more evident | significantly increased | reduced the degree of positive staining for Bax; also recorded: significantly inhibited the SCI-induced increase in Bax expression | attenuated the loss of positive staining for Bcl-2; also recorded: significantly prevents the loss of Bcl-2 expression | reduced the degree of positive staining for COX-2; also recorded: marked reduction in the immunostaining for COX-2 | reduced the degree of positive staining for iNOS; also recorded: marked reduction in the immunostaining | reduced the degree of positive staining for nitrotyrosine; also recorded: marked reduction in the immunostaining |
| C[C@]12CC[C@@H]3c4ccc(O)cc4C[C@@H](CCCCCCCCC[S+]([O-])CCCC(F)(F)C(F)(F)F)[C@H]3[C@@H]1CC[C@@H]2O (stereo partly shown) [ICI 182,780] |  | significantly blocked the effect of the 17β-estradiol; also recorded: Bax band is more evident in comparison with the band present in the tissue from 17β-estradiol-treated mice | significantly blocked the effect of the 17β-estradiol; also recorded: BCL2 band is less evident |  | significantly blocked the effect of the 17β-estradiol | significantly blocked the effect of the 17β-estradiol | significantly blocked the effect of the 17β-estradiol | significantly blocked the effect of the 17β-estradiol | significantly blocked the effect of the 17β-estradiol |
